Values of other authors as cited in patent publication US20220226307A1, “INHIBITION OF BETA-2 NICOTINIC ACETYLCHOLINE RECEPTORS TO TREAT ALZHEIMER'S DISEASE PATHOLOGY” (INSTITUT PASTEUR, priority 2016, published 2022).

Test system: ventral hippocampus alpha-7 nAChR and alpha-4 beta-2 nAChR
Conditions: local infusion in ventral hippocampus (Felix and Levin, 1997; Levin et al., 2002)

SMILES	working memory
CCN1C[C@]2(COC(=O)c3ccccc3N3C(=O)C[C@H](C)C3=O)CC[C@H](OC)[C@@]34[C@@H]5C[C@H]6[C@H](OC)[C@@H]5[C@](O)(C[C@@H]6OC)[C@@](O)([C@@H](OC)[C@H]23)[C@@H]14 [MLA, methyllycaconitine]	induces working memory impairments
Br.CO[C@H]1CC=C2CCN3CCC4=C(CC(=O)OC4)[C@]23C1 [DHβE, dihydro-β-erythroidine hydrobromide]	induces working memory impairments
